Reference: patent US4072574A, “System for in vitro assay for mutagenicity and/or carcinogenicity of chemicals or other exogenous agents” (priority 1976, dated 1978)

What was measured:
[1] = known status of the compound; cited from earlier work
AMV DNA polymerase = test: Fidelity of in vitro DNA synthesis (error frequency) with AMV DNA polymerase copying synthetic polynucleotide templates; settings: for Class: Table 1, classes 1-3 not defined; for Error Frequency: dCMP/dTMP
From the text: (§1) In this invention, the ability of carcinogens to decrease the fidelity of in vitro DNA synthesis will be used to screen for carcinogenic or mutagenic agents. The system uses synthetic polynucleotides of defined composition which may be copied in the test tubes with procaryotic, eucaryotic or viral DNA polymerases. The use of synthetic polynucleotides of defined composition allows the measurement of the simultaneous incorporation of the correct, complementary nucleotide and an incorrect, non-complementary nucleotide. The correct nucleotide is labeled with [α-^32 P] of low specific activity and the incorrect nucleotide is labeled with [^3 H] of high specific activity. Through this double labeled reaction it is possible to determine the simultaneous incorporation of both nucleotides and thus to determine an error frequency. The error frequency may be defined as the ratio of the incorrect/correct nucleotide incorporation. Agents which increase this error frequency may be scored as positive. […] Agents which score positive would be checked using different templates to underscore the positive results. In this system different polymerases will be used as well as different templates. One would expect that most carcinogens would change the fidelity of DNA synthesis with different polymerases as well as with different templates though this need not be the case.
(§2) Each assay will consist of a polymerase, a polynucleotide template that only contains one or two nucleotides, a complementary nucleotide and a non-complementary nucleotide as well as magnesium. Both of the nucleotides will be labeled by radioactive precursors and the ratio between the two is to be used for a measure of error frequency in the system. In instances where a template requires two complementary nucleotides, only one will be radioactively labeled.
(§3) Reactions (total volume 0.05 ml) which measured complementary nucleotide incorporation contained 50 mM Tris-HCL (pH 8.0), 20 mM KCl, 5 mM dithiothreitol, 5 mM MgCl2, 2μg BSA, […] [α-^32 P] -dTTP (60 dpm/pmole), 1μg poly (A).oligo (dT) (1:1.5 mass ratio), and 0.45 μg of AMV DNA polymerase. For simultaneous quantitation of complementary and non-complementary nucleotide incorporation each reaction was modified to contain 26μM [α-^32 P]dTTP (12 dpm/pmole) and 23μM [^3 H]-dCTP (50,000 dpm/pmole). […] Metals were added directly to the reaction mixture as aqueous solutions of chloride salts. All reactions were incubated for 60 min. at 37° C. Incorporation of radioactive nucleotides into an acid-insoluble and alkali-resistant product was determined by using the precipitation-solubilization procedure as described by Battula and Loeb. All experiments were performed in triplicate and the averages were determined.
(§4) In order to determine the effect of different metals on the accuracy of DNA replication, metal cations were added as chloride salts directly to the polymerase reaction. In these experiments, poly (A).oligo (dT) was the template-primer and the simultaneous incorporation of complementary nucleotide, [α-^32 P]-dTMP, and the non-complementery nucleotide, [^3 H]-dCMP, was determined.
(§5) The effect of metal salts on the fidelity of DNA synthesis was examined by testing each of the metal salts at a minimum of seven different concentrations.

[2] = as above; settings: amv dna polymerase
From the text: as §1, §2, §3, §4, §5

[3] = 4 mM added cation + Mg^2+ 5 mM, poly (A).oligo (dT)
[4] = 6 mM added cation + Mg^2+ 5 mM, poly (A).oligo (dT)
[5] = 10 mM added cation + Mg^2+ 5 mM, poly (A).oligo (dT)

## CC(=O)O [NaC2 H3 O2]
[1]
  Carcinogen or Mutagen: -
AMV DNA polymerase; template poly (C).oligo (dG)
  Class: 2
  Metal Concentration which yielded the largest observed change in error rate: 100 mM
[2]; poly(c).oligo(dg)
  fold induction at 1 h: 1

## O=C(O)O [NaHCO3]
[1]
  Carcinogen or Mutagen: -
AMV DNA polymerase; template poly [d(A-T)]
  Class: 2
  Metal Concentration which yielded the largest observed change in error rate: 40 mM
[2]; poly [d(a-t)]
  fold induction at 1 h: 0.96

## [Na+].[OH-] [NaOH]
[1]
  Carcinogen or Mutagen: -
AMV DNA polymerase; template poly [d(A-T)]
  Class: 3
  Metal Concentration which yielded the largest observed change in error rate: 10 mM

## [Cl][Pb][Cl] [PbCl2]
[1]
  Carcinogen or Mutagen: +
AMV DNA polymerase; template poly (C).oligo (dG)
  Class: 1
  Metal Concentration which yielded the largest observed change in error rate: 4 mM

## [Cl-].[Rb+] [RbCl2]
[1]
  Carcinogen or Mutagen: -
AMV DNA polymerase; template poly [d(A-T)]
  Class: 2
  Metal Concentration which yielded the largest observed change in error rate: 20 mM

## [Cl-].[Cl-].[Sr+2] [SrCl2]
[1]
  Carcinogen or Mutagen: -
AMV DNA polymerase; [3]
  Complementary Nucleotide (pmoles dTMP): 798 pmol
  Non-Complementary Nucleotide (pmoles dCMP): 0.86 pmol
  Error Frequency: 1/927
AMV DNA polymerase; [4]
  Complementary Nucleotide (pmoles dTMP): 936 pmol
  Non-Complementary Nucleotide (pmoles dCMP): 0.96 pmol
  Error Frequency: 1/975
AMV DNA polymerase; [5]
  Complementary Nucleotide (pmoles dTMP): 845 pmol
  Non-Complementary Nucleotide (pmoles dCMP): 0.86 pmol
  Error Frequency: 1/982
AMV DNA polymerase; template poly (A).oligo (dT)
  Class: 3
  Metal Concentration which yielded the largest observed change in error rate: 10 mM
AMV DNA polymerase; poly (A).oligo (dT), dTMP complementary, dCMP non-complementary
  effect on error frequency (in words): did not affect either the incorporation of the complementary or non-complementary nucleotides

## [Cl-].[Cl-].[Zn+2] [ZnCl2]
[1]
  Carcinogen or Mutagen: ±
AMV DNA polymerase; template poly [d(A-T)]
  Class: 2
  Metal Concentration which yielded the largest observed change in error rate: 0.4 mM
